Assay results published in publication PMC7515950, “Physiologically based pharmacokinetic modeling to assess metabolic drug–drug interaction risks and inform the drug label for fedratinib” (Cancer Chemotherapy and Pharmacology, 2020).
Where “and” joins values, the source holds several entries; their conditions need not be identical. Identical values can stand only once. Like-named read-outs stand apart in the source and are kept apart here.

Tests used:
[1] = set-up: method as in PMID 32248324; details: healthy subjects, observation, cited from earlier work; for AUC GM Ratio (90% CI): 300 mg single dose with vs without ketoconazole 200 mg BID, AUCinf
[2] = Compartmental PK modeling of single-dose 500 mg data in healthy volunteers; type: in vivo, human
From the text: The PBPK model of fedratinib was constructed in Simcyp® by integrating available in vitro and in vivo information, including physiochemical parameters, permeability and blood binding parameters, enzyme and transporter inhibition parameters, and human PK parameters estimated from clinical PK data. A stepwise “middle-out” approach was applied to estimate the human PBPK parameters for fedratinib in Simcyp®. First, the temporal profiles of mean plasma concentration of fedratinib were collected from the clinical studies in healthy volunteers (HVs) administered single doses of 500 mg fedratinib. Then the preliminary human oral PK parameters were estimated as described in Supplemental Materials SM2 and SM3.
The minimal PBPK model within Simcyp® was used to describe the distribution of fedratinib. The Vss, Vsac, and Q values were estimated using the compartmental PK modeling approach (see Table 3 in Supplemental Material SM 3) and further refined within Simcyp® based on the model-predicted bioavailability (F) using the following equations: […]
The estimated values of Vss, Vsac, and Q were directly supplied to the Distribution module within Simcyp® without further modifications. Note that since the intravenous (IV) PK data are not available in humans for fedratinib, the distribution parameters include Vss estimated from the oral human PK data may not be accurate and will be subject to further verification if the human IV PK data of fedratinib or other relevant clinical information are available in the future.
The temporal profiles of mean plasma concentration of fedratinib were collected from the clinical studies (TDU12620, BDR12462, FED12258, and ALI13451) conducted in healthy volunteers (HVs) administered with single doses of 500 mg fedratinib. The compartmental PK modeling was conducted in Phoenix®/NLME (V7, Certara, Princeton, NJ). A two-compartment PK structural model with the additive error model was identified to successfully describe the PK data. The “naïve pooled” algorithm provided in Phoenix was used for parameter estimation.

[3] = Human 14C mass balance and metabolic profiling (BEX12257, MEH0082); type: in vivo; details: for fa (fraction of absorbed dose): estimated from mass balance and metabolic profiling, BEX12257 and MEH0082; for CL renal: estimated from BEX12257, MEH0082 with CL/F of 33.3 L/h, read-out: CLR (renal clearance) (converted)
Experimental: The first-order absorption ka value was estimated to be ~0.22 h^-1 based on compartmental modeling of mean PK data obtained from healthy subjects given single doses of 500 mg fedratinib (see Table 1 in Supplemental Material SM 2). The fa value was estimated based on data obtained from the mass balance and metabolic profiling studies conducted in healthy subjects. By combining the estimated excretion percentages of the parent compound in urine, feces, and bile, the unabsorbed dose was estimated to be ~35% and thus fraction of absorption (fa) was estimated to be ~0.65 (see Figure 2 and “Excretion Parameters” subsection).
Following the normalization, excretion percentages of fedratinib were estimated to be ~5% and ~37% of the administered dose in urine and feces, respectively.

[4] = target: T1, OATP1B3 (Homo sapiens, UniProt Q9NPD5); test: OATP1B3 inhibition, HEK-hOATP1B3 cells (TRE0075); type: in vitro ADME; set-up: expressed in transfected cells; host or cells: HEK^TR-hOATP1B3
T1 sequence (Q9NPD5 1-702): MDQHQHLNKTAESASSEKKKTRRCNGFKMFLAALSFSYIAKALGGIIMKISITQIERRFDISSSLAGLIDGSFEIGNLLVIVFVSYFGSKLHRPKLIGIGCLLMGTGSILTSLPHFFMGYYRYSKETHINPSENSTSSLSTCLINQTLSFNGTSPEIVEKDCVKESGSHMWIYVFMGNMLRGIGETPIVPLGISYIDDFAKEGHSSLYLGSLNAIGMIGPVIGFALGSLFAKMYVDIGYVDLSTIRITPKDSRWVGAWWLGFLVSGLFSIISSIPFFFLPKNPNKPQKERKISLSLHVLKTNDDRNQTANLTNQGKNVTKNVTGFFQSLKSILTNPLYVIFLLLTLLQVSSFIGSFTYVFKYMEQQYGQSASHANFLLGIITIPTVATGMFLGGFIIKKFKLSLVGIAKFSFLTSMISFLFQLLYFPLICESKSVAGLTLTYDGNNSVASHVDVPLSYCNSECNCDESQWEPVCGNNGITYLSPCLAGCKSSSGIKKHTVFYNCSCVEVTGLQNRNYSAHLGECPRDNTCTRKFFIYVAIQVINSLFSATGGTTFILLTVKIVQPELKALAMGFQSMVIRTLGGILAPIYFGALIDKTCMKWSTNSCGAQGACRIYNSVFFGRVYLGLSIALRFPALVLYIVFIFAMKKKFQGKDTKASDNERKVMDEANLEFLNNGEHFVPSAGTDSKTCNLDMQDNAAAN
From the text: The reported IC50 values were converted to Ki values using the Cheng-Prusoff equation [10]:
The transporter inhibition parameters (Ki) for fedratinib were derived from the experimentally determined IC50 values using the Cheng-Prusoff equation, i.e., Ki = IC50/(1+[S]/Km) with the substrate concentrations ([S]) reported in the experimental studies and the substrate Km values collected from literature, as summarized in Table 13.

[5] = 300 mg single dose + ketoconazole 200 mg BID, GM
[6] = 300 mg single dose + ketoconazole 200 mg BID, Mean (SD)
[7] = 300 mg single dose alone, Mean (SD)
[8] = healthy subjects, single doses of 500 mg, two-compartment model
[9] = human 14C-mass balance, over 0-192/240h
[10] = normalized by total recovered radioactivity

ka ([2]; Simcyp input): 0.220 h⁻¹ | Q (inter-compartment clearance) ([2]; from compartmental modeling, assuming F ~0.36): ~ 11 L/h | ka (first-order absorption constant) ([2]; healthy subjects, single doses of 500 mg): 0.22 h⁻¹ and 0.221 h⁻¹ | CL2/F [2, 8]: 30.8 L/h | CL/F [2, 8]: 27.2 L/h | V2/F [2, 8]: 797 L | V/F [2, 8]: 107 L | ka (first-order absorption constant) ([2]; healthy subjects, single doses of 500 mg, listed as fedratinib): ~ 0.22 h^-1 | unabsorbed dose ([3]; estimated from excretion of parent in urine, feces and bile): ~ 35% | fa (fraction of absorbed dose) [3]: 0.65 | fa (fraction of absorbed dose) ([3]; listed as fedratinib): 0.650 | parent compound in feces, percent of administered dose [3, 9]: 23.3% | parent compound in urine, percent of administered dose [3, 9]: 2.9% | blood plasma ratio ([3]; human, blood and plasma, oral, Study BEX12257, read-out: B/P (blood/plasma concentration ratio)): 0.7 | CL renal ([3]; human, in vivo, oral): ~27.8 mL/min | CL renal ([3]; human, urine, oral): 27.8 mL/min | excretion percentage of fedratinib in feces, normalized [3, 10]: ~ 37% | excretion percentage of fedratinib in urine, normalized [3, 10]: ~ 5% | total percent activity of administered dose ([3]; over 0-192/240h): 62.7% | Ki ([4]; from IC50 by Cheng-Prusoff, probe CCK8): 8.4 µM | IC50 ([4]; probe CCK8 0.5 μM): 9.51 µM
Structure (SMILES): Cc1cnc(Nc2ccc(OCCN3CCCC3)cc2)nc1Nc1cccc(S(=O)(=O)NC(C)(C)C)c1 [Fedratinib]
AUC (AUCinf) [1, 5]: 25000 ng·h/mL | Cmax [1, 5]: 741 ng/mL | AUC (AUCinf) [1, 6]: 26,800 (10,600) ng/mL·h | Cmax [1, 6]: 812 (374) ng/mL | AUC (AUCinf) ([1]; 300 mg single dose alone, GM): 6460 ng·h/mL | Cmax ([1]; 300 mg single dose alone, GM): 379 ng/mL | AUC (AUCinf) [1, 7]: 7440 (4060) ng/mL·h | Cmax [1, 7]: 444 (262) ng/mL | AUC GM Ratio (90% CI) [1]: 3.06 (2.46–3.80) | AUC GM Ratio (90% CI) ([1]; listed as fedratinib): 3.06 | Vsac ([2]; from compartmental modeling, assuming F ~0.36 and body weight ~81 kg): 3.5 L/kg | Vsac ([2]; from compartmental modeling, assuming F ~0.36 and body weight ~81 kg, listed as fedratinib): 3.5 L/kg | Vd ([2]; human, plasma, oral, 500 mg, from compartmental modeling, assuming F ~0.36 and body weight ~81 kg, read-out: Vss): ~4.1 L/kg
